{
  "source": "patent US20040097478A1",
  "about": "“Remedies for retina and choroid diseases containing steroids as the active ingredient” (SANTEN PHARMACEUTICAL O., LTD, priority 2001, published 2004)",
  "key": {"[1]": {"tested_on": "Laser-induced rat choroidal neovascularization models", "settings": "for Neovascularization exhibition rate (%, average of eight eyes): fluorescein fundus angiography on seventh day; for Choroidal neovascularization inhibition rate (%): versus vehicle administration group", "protocol": "(§1) A one ml/kg mixed solution (7:1) of a 5% ketamine hydrochloride injection and a 2% xylazine hydrochloride injection was administered intramuscularly to rats to anesthetize them systemically. A 0.5% tropicamide-0.5% phenylephrine hydrochloride ophthalmic solution was instilled into the eyes to cause mydriasis, and then photocoagulation was performed with a krypton laser photocoagulation apparatus. The photocoagulation was carried out in a posterior section of ocular fundus at eight spots per eye sparsely avoiding thick retinal vessels and focusing on the retinal depth (coagulation conditions: spot size: 100 μm, output: 100 mW, coagulation time: 0.1 sec). After the photocoagulation, the ocular fundus was photographed to confirm laser irradiation sites.\nTriamcinolone was suspended in the phosphate buffers as a comparative group so that its concentrations were 0.2 mg/ml and 2 mg/ml, and each suspension was administered similarly. The phosphate buffer was administered similarly as a vehicle administration group.\n(§2) On seventh day after the photocoagulation, 0.1 ml of 10% fluorescein was injected from carotid vein, and fluorescein fundus angiography was performed. In the fluorescein fundus angiography, a spot where fluorescence diapedesis was not observed was judged as negative, and a spot where fluorescence diapedesis was observed was judged as positive. Each neovascularization exhibition rate was obtained by calculating the ratio of a positive spot number to eight spots irradiated with the laser, and each choroidal neovascularization inhibition rate was calculated according to the following equation.\n(§3) Choroidal neovascularization inhibition rate (%)=(Ao−Ax)/Ao×100\n(§4) Ao: Neovascularization exhibition rate of vehicle administration group\n(§5) Ax: Neovascularization exhibition rate of drug administration group"}, "[2]": {"tested_on": "Thrombin-induced rat retinal vessel hyperpermeability models", "assay": "Retinal vessel permeability inhibition tests of betamethasone phosphate", "assay_type": "in vivo", "settings": "administered with thrombin", "protocol": "A one ml/kg mixed solution (7:1) of a 5% ketamine hydrochloride injection and a 2% xylazine hydrochloride injection was intramuscularly administered to rats to anesthetize them systemically. Then, a 0.5% tropicamide-0.5% phenylephrine hydrochloride ophthalmic solution was instilled into left eyes to cause mydriasis. Thrombin (500. U/ml, 2.5 μl) was injected into vitreous bodies (left eye) of rats of a drug administration group and a control group with a 33 G needle without injuring crystalline lenses and retinas while observing them with a microscope for operation. A vehicle (Dulbecco's modified phosphate buffer physiological saline) was administered to rats of a normal group instead of thrombin. […]\nForty-eight hours after administering thrombin intravitreously, the 0.5% tropicamide-0.5% phenylephrine hydrochloride ophthalmic solution was instilled into the eyes to cause mydriasis. […] About 40 minutes after administering fluorescein, blood was collected from hearts, and then an intraocular fluorescent pigment concentration was immediately measured with a fluorotron master. The collected blood was centrifuged at 15,000 rpm×5 minutes, then supernatant (plasma) was diluted 51 times with the phosphate buffer physiological saline, and a fluorescent pigment concentration in the plasma was measured with the fluorotron master. […]"}, "[3]": {"tested_on": "Laser-induced rat choroidal neovascularization models", "assay": "Choroidal neovascularization inhibition tests of hydrocortisone", "assay_type": "in vivo", "settings": "for Neovascularization exhibition rate (%, average of eight eyes): administered once subconjunctivally immediately after laser irradiation; for Choroidal neovascularization inhibition rate (%): once subconjunctivally, versus vehicle administration group", "protocol": "as §1, §2, §3, §4, §5\nHydrocortisone was dissolved in phosphate buffers so that its concentrations were 2 mg/ml and 20 mg/ml, and each solution was administered once subconjunctivally in an amount of 50 μl immediately after laser irradiation. The phosphate buffer was administered similarly as a vehicle administration group.\nEvaluation was carried out by a method similar to the above-mentioned tests of betamethasone sodium phosphate."}, "[4]": {"tested_on": "Dispase-induced rabbit PVR models", "assay": "Retinal detachment inhibition tests of betamethasone", "assay_type": "in vivo", "settings": "10 mg/eye subconjunctival immediately after dispase", "protocol": "A 0.5% tropicamide-0.5% phenylephrine hydrochloride ophthalmic solution was instilled into eyes of rabbits to cause mydriasis, and a 1 ml/kg mixed solution (7:1) of a 5% ketamine hydrochloride injection and a 2% xylazine hydrochloride injection was administered intramuscularly to the rabbits to anesthetize them systemically. 0.4% oxybuprocaine was instilled into the eyes to anesthetize anterior segments of the eyes, and then 100 μl of a dispase solution prepared at a concentration of 0.05 U/100 μl with physiological saline was injected into vitreous bodies. Six weeks and ten weeks after injecting the dispase solution, PVR induced by dispase was confirmed by observing ocular fundus.\nBetamethasone was dissolved in a phosphate buffer so that its concentration was 0.1 g/ml, and the solution was administered subconjunctivally in an amount of 100 μl immediately after injecting dispase. The phosphate buffer was administered similarly as a vehicle administration group.\nThe ocular fundus was observed 56 days after inducing by dispase, and PVR was judged by scores. Criteria of judgment are shown below. Scores of three or more were defined as exhibition of PVR, and pathogenesis rates of PVR (pathogenesis rates of retinal detachment) in respective groups were calculated according to the equation 2.\n1: A vitreous membrane is observed.\n2: Traction, vascular abnormality or engorgement of the retina is observed.\n3: Topical retinal detachment is observed.\n4: Wide retinal detachment is observed.\n5: Total retinal detachment is observed.\nPathogenesis rate of PVR (%)=PVR exhibition eye number/test eye number×100"}, "[5]": {"settings": "10 μg/eye/day subconjunctival for seven days after laser irradiation"}, "[6]": {"settings": "100 μg/eye/day subconjunctival for seven days after laser irradiation"}},
  "note": "Like-named read-outs stand apart in the source and are kept apart here.",
  "data": [
    {"smiles": "C[C@]12C=CC(=O)C=C1CC[C@H]1[C@@H]3C[C@@H](O)[C@](O)(C(=O)CO)[C@@]3(C)C[C@H](O)[C@@]12F", "note": "[Triamcinolone]", "values": [
      {"measurement": "Neovascularization exhibition rate (%, average of eight eyes)", "setting": "[1]; [5]", "result": 46.9, "unit": "%"},
      {"measurement": "Choroidal neovascularization inhibition rate (%)", "setting": "[1]; 10 μg/eye/day subconjunctival for seven days", "result": 13.1, "unit": "%"},
      {"measurement": "Neovascularization exhibition rate (%, average of eight eyes)", "setting": "[1]; [6]", "result": 22.3, "unit": "%"},
      {"measurement": "Choroidal neovascularization inhibition rate (%)", "setting": "[1]; 100 μg/eye/day subconjunctival for seven days", "result": 58.8, "unit": "%"}
    ]},
    {"smiles": "C[C@H]1C[C@H]2[C@@H]3CCC4=CC(=O)C=C[C@]4(C)[C@@]3(F)[C@@H](O)C[C@]2(C)[C@@]1(O)C(=O)COP(=O)([O-])[O-].[Na+].[Na+]", "note": "[Betamethasone sodium phosphate, betamethasone sodium phosphate]", "values": [
      {"measurement": "Neovascularization exhibition rate (%, average of eight eyes)", "setting": "[1]; [5]", "result": 34.4, "unit": "%"},
      {"measurement": "Neovascularization exhibition rate (%, average of eight eyes)", "setting": "[1]; [6]", "result": 11.1, "unit": "%"},
      {"measurement": "Effect on hyperpermeability of retinal vessels due to thrombin (in words)", "setting": "[2]", "result": "the hyperpermeability of retinal vessels due to thrombin is inhibited"}
    ]},
    {"smiles": "C[C@]12CCC(=O)C=C1CC[C@@H]1[C@@H]2[C@@H](O)C[C@@]2(C)[C@H]1CC[C@]2(O)C(=O)CO", "note": "[Hydrocortisone]", "values": [
      {"measurement": "Neovascularization exhibition rate (%, average of eight eyes)", "setting": "[3]; 100 μg/eye/day", "result": 45.3, "unit": "%"},
      {"measurement": "Choroidal neovascularization inhibition rate (%)", "setting": "[3]; 100 μg/eye/day", "result": 32.6, "unit": "%"},
      {"measurement": "Neovascularization exhibition rate (%, average of eight eyes)", "setting": "[3]; 1000 μg/eye/day", "result": 19.6, "unit": "%"},
      {"measurement": "Choroidal neovascularization inhibition rate (%)", "setting": "[3]; 1000 μg/eye/day", "result": 70.8, "unit": "%"},
      {"measurement": "Inhibitory effect on choroidal neovascularization (in words)", "setting": "[3]; both dosages of 100 μg/eye/day and 1,000 μg/eye/day", "result": "has an inhibitory effect on choroidal neovascularization"}
    ]},
    {"smiles": "C[C@H]1C[C@H]2[C@@H]3CCC4=CC(=O)C=C[C@]4(C)[C@@]3(F)[C@@H](O)C[C@]2(C)[C@@]1(O)C(=O)CO", "note": "[Betamethasone]", "values": [
      {"measurement": "Pathogenesis rate of PVR", "setting": "[4]; after 6 weeks", "result": 45.5, "unit": "%"},
      {"measurement": "Pathogenesis rate of PVR", "setting": "[4]; after 10 weeks", "result": 37.5, "unit": "%"},
      {"measurement": "Pathogenesis rate of PVR", "setting": "[4]; after 10 weeks, listed as betamethasone", "result": 37.5, "unit": "%"}
    ]}
  ]
}
